Among the data in patent publication US7566712B2, “Biaryl piperazinyl-pyridine analogues” (Neurogen Corporation, priority 2003, dated 2009) are IC50 values, retold here.

This assay concerns the target T1, human capsaicin receptor (Homo sapiens, UniProt Q8NER1).
T1 construct: pBK-CMV expression construct encoding the full length human capsaicin receptor; expressed in transfected cells
As to the kind of experiment: Calcium mobilization assay, determination of antagonist activity (Example 6). Type of assay: cell-based. The note with it: Table II. The essentials: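 Antagonism measured as inhibition of capsaicin-evoked (final concentration = EC50, from an 8-point 1 nM–3 μM curve) Fluo-3 calcium signal in stable hVR1-HEK293 cells. Test compounds at 1–5 μM final, 0.5–6 h dark preincubation at room temperature. IC50 = concentration giving 50% reduction versus agonist-only response.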
Background: Calcium assays in cells follow changes in intracellular calcium, usually with a dye or a luminescent sensor.

Setting [1] is: determined as described in Example 6 (antagonist activity), "*" = 1 micromolar or less.
Where [2] appears, read: IC50 determined as described in Example 6 (antagonist activity, calcium mobilization).

T1 sequence (Q8NER1 whole entry): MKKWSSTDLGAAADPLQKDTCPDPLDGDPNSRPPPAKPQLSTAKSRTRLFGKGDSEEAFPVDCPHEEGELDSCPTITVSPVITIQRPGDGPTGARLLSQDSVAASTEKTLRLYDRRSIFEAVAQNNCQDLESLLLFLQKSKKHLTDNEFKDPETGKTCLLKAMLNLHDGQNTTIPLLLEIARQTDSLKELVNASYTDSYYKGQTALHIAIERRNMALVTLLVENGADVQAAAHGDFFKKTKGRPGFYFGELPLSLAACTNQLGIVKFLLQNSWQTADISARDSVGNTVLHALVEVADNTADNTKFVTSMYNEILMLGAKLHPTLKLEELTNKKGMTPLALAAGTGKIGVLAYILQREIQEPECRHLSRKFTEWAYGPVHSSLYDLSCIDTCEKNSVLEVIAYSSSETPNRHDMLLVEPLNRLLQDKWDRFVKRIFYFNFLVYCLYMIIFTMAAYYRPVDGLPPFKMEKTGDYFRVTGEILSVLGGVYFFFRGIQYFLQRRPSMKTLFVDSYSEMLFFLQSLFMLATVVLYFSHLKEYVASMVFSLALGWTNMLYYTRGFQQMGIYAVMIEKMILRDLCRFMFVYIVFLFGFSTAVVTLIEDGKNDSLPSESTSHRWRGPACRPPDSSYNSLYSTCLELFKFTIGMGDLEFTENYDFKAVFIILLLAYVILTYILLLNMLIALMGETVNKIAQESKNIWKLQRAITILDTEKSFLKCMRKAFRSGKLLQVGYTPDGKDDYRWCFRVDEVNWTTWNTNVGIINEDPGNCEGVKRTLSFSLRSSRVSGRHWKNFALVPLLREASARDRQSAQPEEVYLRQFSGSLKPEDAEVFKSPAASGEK

Turning to `C[C@@H]1CN(c2nccnc2Cl)CCN1c1cc(-c2ccc(F)c(Cl)c2)nc(N2CCC[C@H]2C)n1` [Example 942, 4-(3-chloro-4-fluorophenyl)-6-[(2R)-4-(3-chloropyrazin-2-yl)-2-methylpiperazin-1-yl]-2-[(2R)-2-methylpyrrolidin-1-yl]pyrimidine], under setting [1], the IC50 – broadly, the concentration that inhibits the measured activity by half – is at most 1 µM.

In the case of `C[C@H]1CN(c2ncccc2Cl)CCN1c1cc(-c2ccc(F)c(Cl)c2)nc(Cl)n1` [Example 944, 2-chloro-4-(3-chloro-4-fluorophenyl)-6-[(2S)-4-(3-chloropyridin-2-yl)-2-methylpiperazin-1-yl]pyrimidine], the IC50 under setting [1] is at most 1 µM.

For `C[C@@H]1CCCN1c1nc(-c2ccc(F)c(Cl)c2)cc(N2CCN(c3ncccc3Cl)C[C@@H]2C)n1` [Example 945, 4-(3-chloro-4-fluorophenyl)-6-[(2S)-4-(3-chloropyridin-2-yl)-2-methylpiperazin-1-yl]-2-[(2R)-2-methylpyrrolidin-1-yl]pyrimidine], the IC50 under setting [1] was at most 1 µM.

Turning to `C[C@H]1CN(c2ncccc2Cl)CCN1c1cc(-c2ccc(F)c(Cl)c2)nc(N2CCCC2)n1` [Example 946, 4-(3-chloro-4-fluorophenyl)-6-[(2S)-4-(3-chloropyridin-2-yl)-2-methylpiperazin-1-yl]-2-pyrrolidin-1-ylpyrimidine], the concentration for half-maximal inhibition (IC50) under setting [1] was at most 1 µM.

As to `C[C@H]1CN(c2ncccc2Cl)CCN1c1cc(-c2ccc(F)c(Cl)c2)nc(N2CCOCC2)n1` [Example 947, 4-{4-(3-chloro-4-fluorophenyl)-6-[(2S)-4-(3-chloropyridin-2-yl)-2-methylpiperazin-1-yl]pyrimidin-2-yl}morpholine], under setting [1], the IC50 was at most 1 µM.

On to `C[C@@H]1CCCN1c1cc(-c2ccc(F)c(Cl)c2)nc(N2CCN(c3ncccc3Cl)C[C@@H]2C)n1` [Example 948, 4-(3-chloro-4-fluorophenyl)-2-[(2S)-4-(3-chloropyridin-2-yl)-2-methylpiperazin-1-yl]-6-[(2R)-2-methylpyrrolidin-1-yl]pyrimidine], for which the IC50 under setting [1] is at most 1 µM.

Regarding `C[C@@H]1CCCN1c1cc(-c2ccc(F)c(F)c2)nc(N2CCN(c3ncccc3Cl)C[C@@H]2C)n1` [Example 949, 2-[(2S)-4-(3-chloropyridin-2-yl)-2-methylpiperazin-1-yl]-4-(3,4-difluorophenyl)-6-[(2R)-2-methylpyrrolidin-1-yl]pyrimidine], the 50% inhibitory concentration (IC50) under setting [1] is at most 1 µM.

For the compound `C[C@@H]1CCCN1c1cc(-c2ccc(F)c(F)c2)nc(N2CCN(c3nccnc3Cl)C[C@@H]2C)n1` [Example 950, 2-[(2S)-4-(3-chloropyrazin-2-yl)-2-methylpiperazin-1-yl]-4-(3,4-difluorophenyl)-6-[(2R)-2-methylpyrrolidin-1-yl]pyrimidine], the concentration for half-maximal inhibition (IC50) under setting [1] was at most 1 µM.

Take `C[C@@H]1CCCN1c1nc(-c2ccc(F)c(F)c2)cc(N2CCN(c3nccnc3Cl)C[C@@H]2C)n1` [Example 951, 4-[(2S)-4-(3-chloropyrazin-2-yl)-2-methylpiperazin-1-yl]-6-(3,4-difluorophenyl)-2-[(2R)-2-methylpyrrolidin-1-yl]pyrimidine]: the 50% inhibitory concentration (IC50) under setting [1] is at most 1 µM.

`C[C@H]1CN(c2ncccc2Cl)CCN1c1cc(-c2ccc(Cl)c(F)c2)nc(Cl)n1` [Example 953, 2-chloro-4-(4-chloro-3-fluorophenyl)-6-[(2S)-4-(3-chloropyridin-2-yl)-2-methylpiperazin-1-yl]pyrimidine]: under setting [1], the IC50 was at most 1 µM.

Regarding `COc1ccc(Cl)c(N2CCN(c3cc(-c4ccc(F)cc4)nc(N4CCCC4C)n3)[C@H](C)C2)n1` (some centres unmarked) [Example 955, 4-[4-(3-chloro-6-methoxypyridin-2-yl)-2-methylpiperazin-1-yl]-6-(4-fluorophenyl)-2-(2-methylpyrrolidin-1-yl)pyrimidine], under setting [1], the IC50 is at most 1 µM.

Regarding `C[C@H]1CN(c2nccnc2Cl)CCN1c1cc(-c2ccc(Cl)c(F)c2)nc(Cl)n1` [Example 956, 2-chloro-4-(4-chloro-3-fluorophenyl)-6-[(2S)-4-(3-chloropyrazin-2-yl)-2-methylpiperazin-1-yl]pyrimidine], the IC50 under setting [1] was at most 1 µM.

In the case of `C[C@H]1CN(c2ncccc2Cl)CCN1c1cc(-c2ccc(Cl)c(F)c2)nc(N2CCCC2)n1` [Example 957, 4-(4-chloro-3-fluorophenyl)-6-[(2S)-4-(3-chloropyridin-2-yl)-2-methylpiperazin-1-yl]-2-pyrrolidin-1-ylpyrimidine], under setting [1], the IC50 was at most 1 µM.

`C[C@@H]1CCCN1c1nc(-c2ccc(Cl)c(F)c2)cc(N2CCN(c3ncccc3Cl)C[C@@H]2C)n1` [Example 958, 4-(4-chloro-3-fluorophenyl)-6-[(2S)-4-(3-chloropyridin-2-yl)-2-methylpiperazin-1-yl]-2-[(2R)-2-methylpyrrolidin-1-yl]pyrimidine]: under setting [1], the IC50 was at most 1 µM.

On to `C[C@H]1CN(c2ncccc2Cl)CCN1c1cc(-c2ccc(Cl)c(F)c2)nc(N2CCOCC2)n1` [Example 959, 4-{4-(4-chloro-3-fluorophenyl)-6-[(2S)-4-(3-chtoropyridin-2-yl)-2-methylpiperazin-1-yl]pyrimidin-2-yl}morpholine], for which, under setting [1], the IC50 is at most 1 µM.

For `C[C@@H]1CCCN1c1cc(-c2ccc(Cl)c(F)c2)nc(N2CCN(c3ncccc3Cl)C[C@@H]2C)n1` [Example 960, 4-(4-chloro-3-fluorophenyl)-2-[(2S)-4-(3-chloropyridin-2-yl)-2-methylpiperazin-1-yl]-6-[(2R)-2-methylpyrrolidin-1-yl]pyrimidine], under setting [1], the IC50 is at most 1 µM.

Take `C[C@H]1CN(c2nccnc2Cl)CCN1c1cc(-c2ccc(Cl)c(F)c2)nc(N2CCCC2)n1` [Example 961, 4-(4-chloro-3-fluorophenyl)-6-[(2S)-4-(3-chloropyrazin-2-yl)-2-methylpiperazin-1-yl]-2-pyrrolidin-1-ylpyrimidine]: the concentration for half-maximal inhibition (IC50) under setting [1] is at most 1 µM.

On to `C[C@H]1CN(c2nccnc2Cl)CCN1c1cc(-c2ccc(Cl)c(F)c2)nc(N2CCOCC2)n1` [Example 962, 4-{4-(4-chloro-3-fluorophenyl)-6-[(2S)-4-(3-chloropyrazin-2-yl)-2-methylpiperazin-1-yl]pyrimidin-2-yl}morpholine], for which the half-inhibitory concentration (IC50) under setting [1] was at most 1 µM.

In the case of `C[C@@H]1CCCN1c1cc(-c2ccc(Cl)c(F)c2)nc(N2CCN(c3nccnc3Cl)C[C@@H]2C)n1` [Example 963, 4-(4-chloro-3-fluorophenyl)-2-[(2S)-4-(3-chloropyrazin-2-yl)-2-methylpiperazin-1-yl]-6-[(2R)-2-methylpyrrolidin-1-yl]pyrimidine], the IC50 under setting [1] was at most 1 µM.

For `COc1ncc(Cl)c(N2CCN(c3cc(-c4ccc(F)cc4)nc(Cl)n3)[C@H](C)C2)n1` [Example 965, 5-chloro-4-{(3R)-4-[2-chloro-6-(4-fluorophenyl)pyrimidin-4-yl]-3-methylpiperazin-1-yl}-2-methoxypyrimidine], under setting [1], the IC50 is at most 1 µM.

As for `COc1ncc(Cl)c(N2CCN(c3cc(-c4ccc(F)cc4)nc(N4CCC[C@H]4C)n3)[C@H](C)C2)n1` [Example 966, 5-chloro-4-((3R)-4-{6-(4-fluorophenyl)-2-[(2R)-2-methylpyrrolidin-1-yl]pyrimidin-4-yl}-3-methylpiperazin-1-yl)-2-methoxypyrimidine], the half-maximal inhibitory concentration (IC50) under setting [1] was at most 1 µM.

Turning to `COc1ncc(Cl)c(N2CCN(c3cc(-c4ccc(F)cc4)nc(N4CCCC4)n3)[C@H](C)C2)n1` [Example 967, 5-chloro-4-{(3R)-4-[6-(4-fluorophenyl)-2-pyrrolidin-1-ylpyrimidin-4-yl]-3-methylpiperazin-1-yl}-2-methoxypyrimidine], under setting [1], the half-inhibitory concentration (IC50) was at most 1 µM.

As for `COc1ncc(Cl)c(N2CCN(c3nc(-c4ccc(F)cc4)cc(N4CCC[C@H]4C)n3)[C@H](C)C2)n1` [Example 968, 5-chloro-4-((3R)-4-{4-(4-fluorophenyl)-6-[(2R)-2-methylpyrrolidin-1-yl]pyrimidin-2-yl}-3-methylpiperazin-1-yl)-2-methoxypyrimidine], the concentration for half-maximal inhibition (IC50) under setting [1] is at most 1 µM.

With `CC1CCCN1c1nc(-c2ccc(F)cc2)cc(N2CCN(c3nc(O)ccc3Cl)C[C@H]2C)n1` (some centres unmarked) [Example 970, 5-chloro-6-{4-[6-(4-fluorophenyl)-2-(2-methylpyrrolidin-1-yl)pyrimidin-4-yl]-3-methylpiperazin-1-yl}pyridin-2-ol], under setting [1], the half-maximal inhibitory concentration (IC50) is at most 1 µM.

With `C[C@H]1CN(c2nccnc2Cl)CCN1c1cc(-c2ccc(F)c(Cl)c2)nc(Cl)n1` [Example 971, 2-chloro-4-(3-chloro-4-fluorophenyl)-6-[(2S)-4-(3-chloropyrazin-2-yl)-2-methylpiperazin-1-yl]pyrimidine], the half-inhibitory concentration (IC50) under setting [2] was at most 1 µM.

Consider `COc1ncc(Cl)c(N2CCN(c3cc(-c4ccc(F)cc4)nc(N4CCOCC4)n3)[C@H](C)C2)n1` [Example 972, 4-[4-[(2R)-4-(5-chloro-2-methoxypyrimidin-4-yl)-2-methylpiperazin-1-yl]-6-(4-fluorophenyl)pyrimidin-2-yl]morpholine], for which the 50% inhibitory concentration (IC50) under setting [2] was at most 1 µM.

For `C[C@@H]1CCCN1c1nc(-c2ccc(F)c(Cl)c2)cc(N2CCN(c3nccnc3Cl)C[C@@H]2C)n1` [Example 973, 4-(3-chloro-4-fluorophenyl)-6-[(2S)-4-(3-chloropyrazin-2-yl)-2-methylpiperazin-1-yl]-2-[(2R)-2-methylpyrrolidin-1-yl]pyrimidine], the half-maximal inhibitory concentration (IC50) under setting [2] is at most 1 µM.

As for `C[C@H]1CN(c2nccnc2Cl)CCN1c1cc(-c2ccc(F)c(Cl)c2)nc(N2CCCC2)n1` [Example 974, 4-(3-chloro-4-fluorophenyl)-6-[(2S)-4-(3-chloropyrazin-2-yl)-2-methylpiperazin-1-yl]-2-pyrrolidin-1-ylpyrimidine], the IC50 under setting [2] was at most 1 µM.

For `C[C@H]1CN(c2nccnc2Cl)CCN1c1cc(-c2ccc(F)c(Cl)c2)nc(N2CCOCC2)n1` [Example 975, 4-{4-(3-chloro-4-fluorophenyl)-6-[(2S)-4-(3-chloropyrazin-2-yl)-2-methylpiperazin-1-yl]pyrimidin-2-yl}morpholine], the IC50 under setting [2] is at most 1 µM.
